Laboratory results published in BindingDB's records for aid1799744 (Csar, 2012).

These compounds were tested against Mitogen-activated protein kinase 1 (Homo sapiens, UniProt P28482) (assay: Assay 1).
Chain of Mitogen-activated protein kinase 1 (P28482 whole entry): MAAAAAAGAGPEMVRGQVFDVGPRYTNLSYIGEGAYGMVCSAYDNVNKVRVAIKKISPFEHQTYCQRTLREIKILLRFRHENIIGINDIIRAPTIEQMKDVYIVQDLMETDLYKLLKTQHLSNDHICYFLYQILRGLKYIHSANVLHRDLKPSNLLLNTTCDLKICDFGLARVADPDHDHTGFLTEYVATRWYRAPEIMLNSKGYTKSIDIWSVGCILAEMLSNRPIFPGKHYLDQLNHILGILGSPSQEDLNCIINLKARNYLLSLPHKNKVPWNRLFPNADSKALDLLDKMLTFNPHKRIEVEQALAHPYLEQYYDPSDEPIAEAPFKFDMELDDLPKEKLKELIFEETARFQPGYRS

SMILES	Ki [nM]
Nc1ncc(-c2cc(Cl)cc(Cl)c2)c(-c2c[nH]c(C(=O)N[C@H](CO)c3ccccc3)c2)n1 [erk000031]	229
CNc1ncc(C)c(-c2c[nH]c(C(=O)NCc3cccc4ccccc34)c2)n1 [erk000036]	58
Cc1cnc(N)nc1-c1c[nH]c(C(=O)NCc2cccc3ccccc23)c1 [erk000037]	603
CCNc1ncc(C)c(-c2c[nH]c(C(=O)NCc3ccc(F)c(F)c3)c2)n1 [erk000038]	240
CCNc1ncc(C)c(-c2c[nH]c(C(=O)NCc3ccccc3C(F)(F)F)c2)n1 [erk000039]	4570
Cc1cnc(Nc2ccccc2)nc1-c1c[nH]c(C(=O)N[C@H](CO)c2ccccc2)c1 [erk000040]	4
CCNc1ncc(C)c(-c2c[nH]c(C(=O)N[C@H](CO)c3ccccc3)c2)n1 [erk000041]	3
CNc1ncc(C)c(-c2c[nH]c(C(=O)NCc3cccc(C(F)(F)F)c3)c2)n1 [erk000042]	468
Cc1cnc(N)nc1-c1c[nH]c(C(=O)NCc2cccc(C(F)(F)F)c2)c1 [erk000043]	562
CNc1ncc(C)c(-c2c[nH]c(C(=O)NCc3ccccc3)c2)n1 [erk000045]	776
CNc1ncc(C)c(-c2c[nH]c(C(=O)N[C@H](CO)c3ccccc3)c2)n1 [erk000046]	59
CCNc1ncc(C)c(-c2c[nH]c(C(=O)NCc3ccccc3)c2)n1 [erk000047]	89
CCNc1ncc(C)c(-c2c[nH]c(C(=O)N[C@@H](CO)c3ccccc3)c2)n1 [erk000048]	12900
O=C(NCc1ccc2c(c1)OCO2)c1cc(-c2ccnc(Nc3ccccc3)n2)c[nH]1 [erk000049]	269
CNc1ncc(C)c(-c2c[nH]c(C(=O)NCc3ccc(Cl)cc3Cl)c2)n1 [erk000054]	2000
Cc1cnc(N)nc1-c1c[nH]c(C(=O)NCc2ccc(Cl)cc2Cl)c1 [erk000055]	6760
CNc1ncc(C)c(-c2c[nH]c(C(=O)NCc3ccc(F)c(F)c3)c2)n1 [erk000056]	3720
O=C(c1cc(-c2ccnc(Nc3ccccc3)n2)c[nH]1)N1CCc2ccccc2C1 [erk000057]	525
CCNc1ncc(C)c(-c2c[nH]c(C(=O)N3CCc4ccccc4C3)c2)n1 [erk000058]	1590
CN(Cc1ccccc1)C(=O)c1cc(-c2ccnc(Nc3ccccc3)n2)c[nH]1 [erk000059]	302
CCNc1ncc(CC)c(-c2c[nH]c(C(=O)N[C@H](CO)c3ccccc3)c2)n1 [erk000060]	120

SMILES	Ki [nM]
CCNc1ncc(C)c(-c2c[nH]c(C(=O)NCc3cccc(C(F)(F)F)c3)c2)n1 [erk000062]	141
CCc1cnc(N)nc1-c1c[nH]c(C(=O)N[C@H](CO)c2ccccc2)c1 [erk000065]	288
Cc1cnc(N)nc1-c1c[nH]c(C(=O)NCc2ccc3c(c2)OCO3)c1 [erk000066]	141
Nc1nccc(-c2c[nH]c(C(=O)N[C@H](CO)c3ccccc3)c2)n1 [erk000067]	324
CCNc1nccc(-c2c[nH]c(C(=O)N[C@H](CO)c3ccccc3)c2)n1 [erk000068]	100
CCc1cnc(N)nc1-c1c[nH]c(C(=O)NCc2cccc3ccccc23)c1 [erk000070]	1100
Clc1ccc(-c2n[nH]c3c2CCCC3)cc1 [erk000071]	5250
Cc1onc(-c2ccccc2)c1-c1ccnc(NC2CCC(O)CC2)n1 (centres undefined) [erk000075]	1000
Cc1onc(-c2ccccc2)c1-c1ccn(C(=O)NC(C)C)n1 [erk000088]	15100
Cc1cnc(N)nc1-c1c[nH]c(C(=O)NCc2ccccc2)c1 [erk000103]	832
O=C(NCc1ccncc1)c1cc(-c2n[nH]cc2-c2cc(Cl)cc(Cl)c2)c[nH]1 [erk000114]	79
O=C(c1cc(-c2n[nH]cc2-c2cc(Cl)cc(Cl)c2)c[nH]1)N1CCOCC1 [erk000124]	813
Fc1ccc(-c2n[nH]cc2-c2ccnc(NC3CCCCC3)c2)cc1 [erk000125]	2570
CCN(C)C(=O)c1cc(-c2[nH]ncc2-c2ccc(F)c(Cl)c2)c[nH]1 [erk000142]	251
O=C(N[C@H](CO)c1ccccc1)c1cc(-c2n[nH]cc2-c2cccc(C(F)(F)F)c2)c[nH]1 [erk000184]	83
CCN(CC)CCOc1ccc(Nc2ncc3cc(-c4c(Cl)cccc4Cl)c(=O)n(C)c3n2)cc1 [erk000225]	174
O=C(NCc1ccc2c(c1)CCO2)c1cc(-c2n[nH]cc2-c2cccc(Cl)c2)c[nH]1 [erk000232]	21
C[S+]([O-])c1ccc(-c2nc(-c3cccc(I)c3)c(-c3ccncc3)[nH]2)cc1 (centres undefined) [erk000253]	12900
NCc1ccc(-c2cn[nH]c2-c2c[nH]c(C(=O)NCc3ccc4c(c3)CCO4)c2)cc1C(F)(F)F [erk000282]	191
CC1CCN(c2nc(Nc3cc(C4CC4)n[nH]3)c3ccccc3n2)CC1 [erk000284]	65
Cc1cnc(N)nc1-c1c[nH]c(C(=O)NCc2ccc(F)c(F)c2)c1 [erk000286]	48

SMILES	Ki [nM]
Cc1cnc(N)nc1-c1c[nH]c(C(=O)N[C@H](CO)c2ccccc2)c1 [erk000287]	1910
Cc1cnc(N)nc1-c1c[nH]c(C(=O)NCc2ccc(Cl)cc2)c1 [erk000302]	617
Cc1cnc(N)nc1-c1c[nH]c(C(=O)NCc2cccc(Cl)c2)c1 [erk000303]	81
Cc1cnc(N)nc1-c1c[nH]c(C(=O)NCc2ccc(F)c(Cl)c2)c1 [erk000304]	372
Cc1cnc(N)nc1-c1c[nH]c(C(=O)N[C@@H](CCO)c2ccccc2)c1 [erk000305]	1550
Cc1cnc(N)nc1-c1c[nH]c(C(=O)N[C@H](CCO)c2ccccc2)c1 [erk000306]	15800
Cc1cnc(NC2CCCCC2)nc1-c1c[nH]c(C(=O)NCc2ccc(F)c(F)c2)c1 [erk000310]	71
Cc1cnc(N)nc1-c1c[nH]c(C(=O)NCc2ccccc2F)c1 [erk000311]	4790
COc1ccccc1CNC(=O)c1cc(-c2nc(N)ncc2C)c[nH]1 [erk000312]	2510
Cc1cnc(N)nc1-c1cc(C(=O)NCc2ccc(F)c(Cl)c2)n(Cc2ccccc2)c1 [erk000317]	11000
Cc1cnc(N)nc1-c1cc(C(=O)N[C@H](CO)c2ccccc2)n(Cc2ccccc2)c1 [erk000319]	3980
Cc1cnc(N)nc1-c1cc(C(=O)NCc2ccc(F)c(F)c2)n(C)c1 [erk000327]	3470
CCN(CC)CCNc1ncc(C)c(-c2c[nH]c(C(=O)NCc3ccc(F)c(F)c3)c2)n1 [erk000364]	3980
Cc1cnc(Nc2nc(N3CCCCC3)nc3ccccc23)nc1-c1c[nH]c(C(=O)NCc2ccccc2)c1 [erk000377]	2090
CCOC(=O)CNCc1ccc(-c2c[nH]nc2-c2c[nH]c(C(=O)N[C@H](CO)c3ccc(F)c(Cl)c3)c2)cc1Cl [erk000391]	18
CNc1ncc(C)c(-c2c[nH]c(C(=O)NCc3ccc(F)c(Cl)c3)c2)n1 [erk000393]	282
CNc1ncc(C)c(-c2c[nH]c(C(=O)N[C@@H](CO)c3ccc(F)c(Cl)c3)c2)n1 [erk000396]	68
Cc1cnc(Nc2ccccc2)nc1-c1c[nH]c(C(=O)N[C@@H](CO)c2ccc(F)c(Cl)c2)c1 [erk000397]	4
Cc1cnc(Nc2ccccc2)nc1-c1c[nH]c(C(=O)NCc2ccc(F)c(Cl)c2)c1 [erk000398]	25
O=C(N[C@H](CO)c1ccccc1)c1cc(-c2nc(Nc3ccccc3)ncc2C2CC2)c[nH]1 [erk000434]	417
Cc1ccc([C@@H](CO)NC(=O)c2cc(-c3nc(Nc4ccccc4)ncc3C)c[nH]2)cc1F [erk000435]	2

SMILES	Ki [nM]
Cc1ccc([C@@H](CO)NC(=O)c2cc(-c3nc(Nc4cccc(F)c4)ncc3C)c[nH]2)cc1F [erk000436]	6
Cc1cnc(Nc2cccc(C(F)(F)F)c2)nc1-c1c[nH]c(C(=O)N[C@H](CO)c2ccccc2)c1 [erk000438]	2
Cc1cnc(NCc2ccccc2)nc1-c1c[nH]c(C(=O)N[C@H](CO)c2ccccc2)c1 [erk000439]	14
Cc1ccc(Nc2ncc(C)c(-c3c[nH]c(C(=O)NCc4cccc(C(F)(F)F)c4)c3)n2)cc1C [erk000440]	28
Cc1ccc(Nc2ncc(C)c(-c3c[nH]c(C(=O)N[C@H](CO)c4ccccc4)c3)n2)cc1C [erk000441]	2
Cc1cnc(Nc2ccc(OCc3ccccc3)cc2)nc1-c1c[nH]c(C(=O)N[C@H](CO)c2ccccc2)c1 [erk000442]	3
Cc1cnc(NCC(F)(F)F)nc1-c1c[nH]c(C(=O)N[C@H](CO)c2ccccc2)c1 [erk000444]	5
Cc1cnc(N[C@H](CO)c2ccccc2)nc1-c1c[nH]c(C(=O)N[C@H](CO)c2ccccc2)c1 [erk000445]	1
COc1ccccc1Nc1ncc(C)c(-c2c[nH]c(C(=O)N[C@H](CO)c3ccccc3)c2)n1 [erk000446]	68
Cc1cnc(Nc2ccc(OC(F)(F)F)cc2)nc1-c1c[nH]c(C(=O)N[C@H](CO)c2ccccc2)c1 [erk000447]	2
Cc1cnc(NCC(C)C)nc1-c1c[nH]c(C(=O)N[C@H](CO)c2ccccc2)c1 [erk000448]	3
Cc1cnc(NCC2CC2)nc1-c1c[nH]c(C(=O)N[C@H](CO)c2ccccc2)c1 [erk000453]	5
CCNc1ncc(C)c(-c2c[nH]c(C(=O)N[C@@H](CCO)c3ccccc3)c2)n1 [erk000459]	501
Cc1cnc(NC2(CO)CC2)nc1-c1c[nH]c(C(=O)N[C@H](CO)c2ccccc2)c1 [erk000460]	1
Cc1cnc(NCCO)nc1-c1c[nH]c(C(=O)N[C@H](CO)c2ccccc2)c1 [erk000461]	17
Cc1cnc(N[C@H](C)CO)nc1-c1c[nH]c(C(=O)N[C@H](CO)c2ccccc2)c1 [erk000462]	14
Cc1cnc(NC[C@@H](C)O)nc1-c1c[nH]c(C(=O)N[C@H](CO)c2ccccc2)c1 [erk000463]	27
Cc1cnc(NC[C@H](C)O)nc1-c1c[nH]c(C(=O)N[C@H](CO)c2ccccc2)c1 [erk000464]	37
Cc1cnc(N[C@H]2CCCC[C@H]2O)nc1-c1c[nH]c(C(=O)N[C@H](CO)c2ccccc2)c1 [erk000465]	7
CCNc1ncc(C)c(-c2c[nH]c(C(=O)N[C@H](C(=O)OC)c3ccccc3)c2)n1 [erk000470]	1000
Cc1cnc(N[C@@H](C)CO)nc1-c1c[nH]c(C(=O)N[C@H](CO)c2ccccc2)c1 [erk000471]	15
